For 37 compounds, IC50 results are on record in patent US10526327B2, “Histone demethylase inhibitors” (CELGENE QUANTICEL RESEARCH, INC., priority 2013, dated 2020).

A word on the IC50: it is the concentration at which inhibition is half-maximal. Low readings indicate greater potency, high ones weaker potency.

Each structure is given as a SMILES string.

This experiment concerns the target T1, JMJD2C (Homo sapiens, UniProt Q9H3R0).
T1 construct: purchased BPS Bioscience 50105
T1 sequence (Q9H3R0 2-372): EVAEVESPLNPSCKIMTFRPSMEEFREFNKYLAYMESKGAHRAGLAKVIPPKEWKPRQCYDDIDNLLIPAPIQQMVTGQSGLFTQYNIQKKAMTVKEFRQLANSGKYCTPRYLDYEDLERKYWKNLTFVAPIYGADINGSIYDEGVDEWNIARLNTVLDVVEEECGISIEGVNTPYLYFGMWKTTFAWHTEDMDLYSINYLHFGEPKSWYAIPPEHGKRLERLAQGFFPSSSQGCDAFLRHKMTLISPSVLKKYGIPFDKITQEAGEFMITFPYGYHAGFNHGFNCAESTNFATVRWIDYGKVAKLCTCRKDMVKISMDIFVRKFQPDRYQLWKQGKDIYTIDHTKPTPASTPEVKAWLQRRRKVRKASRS
In words: JMJD2C in vitro enzyme inhibition assay (TR-FRET). It counts as biochemical. The essentials:
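IC50 came from 665/615 TR-FRET ratios (Eu-anti-H3K9me2 antibody, streptavidin-APC, EDTA quench) over 11-point inhibitor series. Reactions ran 30 min at room temperature: 0.3 nM JMJD2C (AA 2-372, baculovirus), 300 nM biotinylated H3K9me3 peptide, 2 μM alpha-ketoglutarate, 2 μM Fe(II), ascorbate, pH 7.3.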
For orientation: In TR-FRET formats the signal depends on donor and acceptor labels being close together.
Consider `Oc1nc(Oc2cnn([C@H]3CCNC3)c2)nc2cnccc12` [Example 135, 2-({1-[(3S)-pyrrolidin-3-yl]-1H-pyrazol-4-yl}oxy)pyrido[3,4-d]pyrimidin-4-ol], for which the IC50 was at most 100 nM. As to `Oc1nc(Oc2cnn([C@@H]3CCNC3)c2)nc2cnccc12` [Example 125, 2-({1-[(3R)-pyrrolidin-3-yl]-1H-pyrazol-4-yl}oxy)pyrido[3,4-d]pyrimidin-4-ol], the IC50 is at most 100 nM. The value for `C[C@@H](c1ccccc1)n1cc(Oc2nc(O)c3ccncc3n2)cn1` [Example 118, 2-({1-[(1S)-1-phenylethyl]-1H-pyrazol-4-yl}oxypyrido) [3,4-d]pyrimidin-4-ol] was at most 100 nM; that for `Oc1nc(Oc2cnn(C(c3ccccc3)C3CC3)c2)nc2cnccc12` (stereo not shown) [Example 116, 2-({1-[cyclopropyl(phenyl)methyl]-1H-pyrazol-4-yl}oxy)pyrido[3,4-d]pyrimidin-4-ol] was at most 100 nM; that for `Oc1nc(Oc2cnn(CCN3CCOCC3)c2)nc2cnccc12` [Example 124, 2-({1-[2-(morpholin-4-yl)ethyl]-1H-pyrazol-4-yl}oxy)pyrido[3,4-d]pyrimidin-4-ol] was at most 100 nM. For `Oc1nc(Oc2ccc(Cl)c(Cl)c2)nc2cnccc12` [Example 114, 2-(3,4-dichlorophenoxy)pyrido[3,4-d]pyrimidin-4-ol] the value was at most 100 nM. With `Oc1nc(OCCC(F)(F)F)nc2cnccc12` [Example 13, 2-(3,3,3-trifluoropropoxy)pyrido[3,4-d]pyrimidin-4-ol], the 50% inhibitory concentration (IC50) lay within 100 to 1000 nM. `Oc1nc(Oc2cnn([C@H]3CCCN(Cc4ccccc4)C3)c2)nc2cnccc12` [Example 168, 2-({1-[(3S)-1-benzylpiperidin-3-yl]-1H-pyrazol-4-yl}oxy)pyrido[3,4-d]pyrimidin-4-ol] had an IC50 of at most 100 nM.

The compound `CCS(=O)(=O)N1CC[C@@H](n2cc(Oc3nc(O)c4ccncc4n3)cn2)C1` [Example 126, 2-({1-[(3R)-1-(ethanesulfonyl)pyrrolidin-3-yl]-1H-pyrazol-4-yl}oxy)pyrido[3,4-d]pyrimidin-4-ol] displayed an IC50 of at most 100 nM. As for `CCC(Oc1nc(O)c2ccnc(-c3cn(C)cn3)c2n1)C(F)(F)F` (stereo not shown) [Example 110, 8-(1-methyl-1H-imidazol-4-yl)-2-[(1,1,1-trifluorobutan-2-yl)oxy]pyrido[3,4-d]pyrimidin-4-ol], the IC50 is 1000 to 10000 nM.

Consider `O=S(=O)(c1ccccc1)N1CCC[C@@H](n2cc(Oc3nc(O)c4ccncc4n3)cn2)C1` [Example 152, 2-({1-[(3R)-1-(benzenesulfonyl)piperidin-3-yl]-1H-pyrazol-4-yl}oxy)pyrido[3,4-d]pyrimidin-4-ol], for which the IC50 is at most 100 nM.

With `Oc1nc(Oc2cnn([C@@H]3CCCN(c4ccc(F)cc4)C3)c2)nc2cnccc12` [Example 159, 2-({1-[(3R)-1-(4-fluorophenyl)piperidin-3-yl]-1H-pyrazol-4-yl}oxy)pyrido[3,4-d]pyrimidin-4-ol], the IC50 is at most 100 nM. With `Oc1nc(Oc2cnn([C@@H]3CCN(Cc4ccccc4)C3)c2)nc2cnccc12` [Example 133, 2-({1-[(3R)-1-benzylpyrrolidin-3-yl]-1H-pyrazol-4-yl}oxy)pyrido[3,4-d]pyrimidin-4-ol], the IC50 was at most 100 nM. `N#CCC(=O)N1CCC[C@H](n2cc(Oc3nc(O)c4ccncc4n3)cn2)C1` [Example 166, 3-[(3S)-3-[4-({4-hydroxypyrido[3,4-d]pyrimidin-2-yl}oxy)-1H-pyrazol-1-yl]piperidin-1-yl]-3-oxopropanenitrile] yielded an IC50 of at most 100 nM. `O=C(CO)N1CC[C@H](n2cc(Oc3nc(O)c4ccncc4n3)cn2)C1` [Example 155, 2-hydroxy-1-[(3S)-3-[4-({4-hydroxypyrido[3,4-d]pyrimidin-2-yl}oxy)-1H-pyrazol-1-yl]pyrrolidin-1-yl]ethan-1-one] yielded an IC50 of at most 100 nM. For `N#CCC(=O)N1CCC[C@@H](n2cc(Oc3nc(O)c4ccncc4n3)cn2)C1` [Example 154, 3-[(3R)-3-[4-({4-hydroxypyrido[3,4-d]pyrimidin-2-yl}oxy)-1H-pyrazol-1-yl]piperidin-1-yl]-3-oxopropanenitrile], the IC50 is at most 100 nM. The compound `CNCC(=O)N1CC[C@H](n2cc(Oc3nc(O)c4ccncc4n3)cn2)C1` [Example 144, 1-[(3S)-3-[4-({4-hydroxypyrido[3,4-d]pyrimidin-2-yl}oxy)-1H-pyrazol-1-yl]pyrrolidin-1-yl]-2-(methylamino)ethan-1-one] registered an IC50 of at most 100 nM. The compound `O=C(C1CC1)N1CCC[C@@H](n2cc(Oc3nc(O)c4ccncc4n3)cn2)C1` [Example 156, 2-({1-[(3R)-1-cyclopropanecarbonylpiperidin-3-yl]-1H-pyrazol-4-yl}oxy)pyrido[3,4-d]pyrimidin-4-ol] displayed an IC50 of at most 100 nM. Regarding `Oc1nc(Oc2cnn([C@H]3CCN(c4ccc(F)cc4)C3)c2)nc2cnccc12` [Example 146, 2-({1-[(3S)-1-(4-fluorophenyl)pyrrolidin-3-yl]-1H-pyrazol-4-yl}oxy)pyrido[3,4-d]pyrimidin-4-ol], the IC50 was at most 100 nM. Compound `Oc1nc(OCc2c(Cl)cccc2Cl)nc2cnccc12` [Example 172, 2-[(2,6-dichlorophenyl)methoxy]pyrido[3,4-d]pyrimidin-4-ol] came in with an IC50 of 1000 to 10000 nM.

In the case of `Oc1nc(Oc2cnn([C@H]3CCN(c4ccc(Cl)cc4)C3)c2)nc2cnccc12` [Example 148, 2-({1-[(3S)-1-(4-chlorophenyl)pyrrolidin-3-yl]-1H-pyrazol-4-yl}oxy)pyrido[3,4-d]pyrimidin-4-ol], the IC50 was at most 100 nM. Regarding `Oc1nc(OCCc2ccc(Cl)cc2)nc2cnccc12` [Example 174, 2-[2-(4-chlorophenyl)ethoxy]pyrido[3,4-d]pyrimidin-4-ol], the IC50 was 100 to 1000 nM. Take `O=S(=O)(C1CC1)N1CCCC(n2cc(Oc3nc(O)c4ccncc4n3)cn2)C1` (stereo in doubt) [Example 151, 2-({1-[(3S)-1-(cyclopropanesulfonyl)piperidin-3-yl]-1H-pyrazol-4-yl}oxy)pyrido[3,4-d]pyrimidin-4-ol]: the 50% inhibitory concentration (IC50) was at most 100 nM. `Oc1nc(OCc2ccc(C(F)(F)F)cc2)nc2cnccc12` [Example 170, 2-{[4-(trifluoromethyl)phenyl]methoxy}pyrido[3,4-d]pyrimidin-4-ol] came in with a half-inhibitory concentration (IC50) of 1000 to 10000 nM.

The compound `Oc1nc(Oc2cnn(C3CCCN(c4ccc(F)cc4)C3)c2)nc2cnccc12` (stereo in doubt) [Example 169, 2-({1-[(3R)-1-(4-fluorophenyl)piperidin-3-yl]-1H-pyrazol-4-yl}oxy)pyrido[3,4-d]pyrimidin-4-ol] yielded an IC50 of at most 100 nM. For `C[C@H](c1ccccc1)n1cc(Oc2nc(O)c3ccncc3n2)cn1` [Example 117, 2-({1-[(1R)-1-phenylethyl]-1H-pyrazol-4-yl}oxy)pyrido[3,4-d]pyrimidin-4-ol] the value was at most 100 nM; for `Oc1nc(OCc2ccccc2Cl)nc2cnccc12` [Example 171, 2-[(2-chlorophenyl)methoxy]pyrido[3,4-d]pyrimidin-4-ol], at most 100 nM; for `Oc1nc(Oc2cnn([C@H]3CCN(c4ccccc4)C3)c2)nc2cnccc12` [Example 145, 2-({1-[(3S)-1-phenylpyrrolidin-3-yl]-1H-pyrazol-4-yl}oxy)pyrido[3,4-d]pyrimidin-4-ol], at most 100 nM. As to `Oc1nc(Oc2cnn(C3CCN(Cc4ccccc4)CC3)c2)nc2cnccc12` [Example 123, 2-{[1-(1-benzylpiperidin-4-yl)-1H-pyrazol-4-yl]oxy}pyrido[3,4-d]pyrimidin-4-ol], the IC50 was at most 100 nM. `Oc1nc(OCCc2ccccc2)nc2cnccc12` [Example 18, 2-(2-phenylethoxy)pyrido[3,4-d]pyrimidin-4-ol]: the IC50 fell in the range of 100 to 1000 nM.

Regarding `Cn1cnc(-c2nccc3c(O)nc(OCc4ccc(C(F)(F)F)cc4)nc23)c1` [Example 111, 8-(1-methyl-1H-imidazol-4-yl)-2-{[4-(trifluoromethyl)phenyl]methoxy}pyrido[3,4-d]pyrimidin-4-ol], the IC50 was in the range of 100 to 1000 nM. `O=C(C1CCNCC1)N1CC[C@H](n2cc(Oc3nc(O)c4ccncc4n3)cn2)C1` [Example 143, 2-({1-[(3S)-1-(piperidine-4-carbonyl)pyrrolidin-3-yl]-1H-pyrazol-4-yl}oxy)pyrido[3,4-d]pyrimidin-4-ol]: the IC50 was at most 100 nM.

Consider `Oc1nc(OCCc2ccc(Cl)c(Cl)c2)nc2cnccc12` [Example 175, 2-[2-(3,4-dichlorophenyl)ethoxy]pyrido[3,4-d]pyrimidin-4-ol], for which the IC50 was at most 100 nM. In turn, `O=C(C1CC1)N1CC[C@@H](n2cc(Oc3nc(O)c4ccncc4n3)cn2)C1` [Example 131, 2-({1-[(3R)-1-cyclopropanecarbonylpyrrolidin-3-yl]-1H-pyrazol-4-yl}oxy)pyrido[3,4-d]pyrimidin-4-ol] showed an IC50 of at most 100 nM.

As to `O=S(=O)(C1CC1)N1CC[C@H](n2cc(Oc3nc(O)c4ccncc4n3)cn2)C1` [Example 137, 2-({1-[(3S)-1-(cyclopropanesulfonyl)pyrrolidin-3-yl]-1H-pyrazol-4-yl}oxy)pyrido[3,4-d]pyrimidin-4-ol], the IC50 was at most 100 nM. The compound `Oc1nc(Oc2cnn([C@@H]3CCCN(Cc4ccccc4)C3)c2)nc2cnccc12` [Example 158, 2-({1-[(3R)-1-benzylpiperidin-3-yl]-1H-pyrazol-4-yl}oxy)pyrido[3,4-d]pyrimidin-4-ol] displayed an IC50 of at most 100 nM. For `Cn1cnc(-c2nccc3c(O)nc(OCc4ccc(Cl)cc4)nc23)c1` [Example 112, 2-[(4-chlorophenyl)methoxy]-8-(1-methyl-1H-imidazol-4-yl)pyrido[3,4-d]pyrimidin-4-ol] the value was 100 to 1000 nM.
